Test results taken from patent US20200056174A1, “COMPOSITIONS AND METHODS OF TREATING CANCER” (DANA-FARBER CANCER INSTITUTE, INC., priority 2016, published 2020).

How the values were obtained:
BT-549 cells = experiment: Expression (qRT-PCR, immunoblot) in treated BT-549 TNBC cells; assay type: cell-based, human; conditions: vs vehicle
Method: (§1) Cell culture. Human BT-549, SUM-159 and mouse Eo771 TNBC cells were propagated in RPMI1640 medium (ATCC, Manassas, Va., USA). Human MDA-MB-468 and MDA-MB-231 TNBC cells were cultured in Dulbecco's modified Eagle's medium (DMEM) (Corning, Manassas, Va., USA). Human BT-20 TNBC cells were cultured in Eagle's Minimum Essential Medium (EMEM) (ATCC). Media were supplemented with 10% heat-inactivated fetal bovine serum, 100 units/ml penicillin, and 100 μg/ml streptomycin. Authentication of the cells was performed by short tandem repeat (STR) analysis. Cells were monitored for Mycoplasma contamination by MycoAlert® Mycoplasma Detection Kit (Lonza, Rockland, Mass., USA). BT-549 and MDA-MB-231 cells were transfected with lentiviral vectors to stably express a scrambled control shRNA (CshRNA; Sigma, St. Louis, Mo., USA) and a NF-κB p65 shRNA (Sigma). Human BT-20 and mouse Eo771 cells were stably transfected to express an empty vector or one encoding MUC1-C. […]
(§2) Quantitative real-time, reverse transcriptase PCR (qRT-PCR). […]
(§3) Immunoblot analysis. […] Immunoreactive complexes were detected using horseradish peroxidase-conjugated secondary antibodies (GE Healthcare Life Sciences, Marlborough, Mass., USA) and an enhanced chemiluminescence (ECL) detection reagents (Perkin Elmer Health Sciences, Waltham, Mass., USA). […] Lysates were analyzed using the Lightswitch Luciferase Assay Kit (Active Motif).

Eo771/MUC1-C cells = experiment: Expression (qRT-PCR, immunoblot) in treated Eo771/MUC1-C cells; assay type: cell-based, mouse; conditions: vs vehicle
Method: as §1, §2, §3

BT-20/MUC1-C cells = experiment: Expression (qRT-PCR, immunoblot) in treated BT-20/MUC1-C cells; assay type: cell-based, human; conditions: vs vehicle
Method: as §1, §2, §3

H460 cells = experiment: Gene expression (qRT-PCR) in treated H460 NSCLC cells; assay type: cell-based, human; conditions: 5 μM BAY-11-7085, 18 h, vs DMSO
Method: (§4) Cell culture. Human A549/KRAS(G12S), H460/KRAS(Q61H) and H1975/EGFR(L858R/T790M) NSCLC cells (ATCC) were grown in RPMI1640 medium supplemented with 10% heat-inactivated fetal bovine serum (HI-FBS), 100 μg/ml streptomycin, 100 units/ml penicillin and 2 mM L-glutamine. Authentication of the cells was performed by short tandem repeat (STR) analysis. Cells were transfected with lentiviral vectors to stably express a scrambled control shRNA (CshRNA; Sigma), a MUC1 shRNA (MUC1shRNA; Sigma), a NF-κB p65 shRNA (Sigma), MUC1-C or MUC1-C (AQA) (27, 8, 49). Cells were treated with the IκB inhibitor BAY-11-7085 (Sigma) or DMSO as the vehicle control. Cells were also treated with empty nanoparticles (NPs) or GO-203/NPs (39).
(§5) Quantitative real-time, reverse transcriptase PCR (qRT-PCR). Whole cell RNA was isolated using the RNeasy mini kit (Qiagen). The High Capacity cDNA Reverse Transcription kit (Life Technologies) was used to synthesize cDNAs from 2 μg RNA. The SYBR green qPCR assay kit and the ABI Prism Sequence Detector (Applied Biosystems) were used to amplify the cDNAs.
(§6) Immunoblot analysis. Whole cell lysates were prepared in NP-40 lysis buffer and immunoblotted with antibodies against MUC1-C (LabVision), PD-L1 (Cell Signaling Technology) and β-actin (Sigma). Horseradish peroxidase secondary antibodies and enhanced chemiluminescence (GE Healthcare) were used for the detection of immune complexes.

H1975 cells = experiment: Gene expression (qRT-PCR) in treated H1975 NSCLC cells; assay type: cell-based, human; conditions: 5 μM BAY-11-7085, 18 h, vs DMSO
Method: as §4, §5, §6

SMILES | PD-L1 expression (BT-549 cells; 5 μM BAY-11-7085, 24 h) | MUC1-C→PD-L1 response (PD-L1 mRNA and protein) (Eo771/MUC1-C cells; 5 μM BAY-11-7085, 24 h) | PD-L1 expression (BT-20/MUC1-C cells; 5 μM BAY-11-7085, 24 h) | PD-L1 expression (mRNA, qRT-PCR) (H460 cells) | TLR7 mRNA levels (H460 cells) | PD-L1 expression (mRNA, qRT-PCR) (H1975 cells) | TLR7 mRNA levels (H1975 cells) | PD-L1 expression (BT-549 cells; 5 μM JQ1, 48 h) | MUC1-C→PD-L1 response (PD-L1 mRNA and protein) (Eo771/MUC1-C cells; 5 μM JQ1, 48 h) | PD-L1 expression (BT-20/MUC1-C cells; 5 μM JQ1, 48 h)
CC(C)(C)c1ccc(S(=O)(=O)/C=C/C#N)cc1 [BAY-11-7085] | suppression of PD-L1 expression | inhibited | suppression of PD-L1 expression | suppresses PD-L1 expression | decreases in TLR7 mRNA levels | suppresses PD-L1 expression | decreases in TLR7 mRNA levels |  |  | 
Cc1sc2c(c1C)C(c1ccc(Cl)cc1)=N[C@@H](CC(=O)OC(C)(C)C)c1nnc(C)n1-2 [JQ1] |  |  |  |  |  |  |  | downregulation of PD-L1 expression | inhibited | downregulation of PD-L1 expression
